The subject of test [1] is HCT-116 human colorectal carcinoma cells. The test can be described thus: Cell-proliferation assay using Alamar Blue dye.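 Also: cells exposed to compound for about 4 days, then Alamar Blue added and dye fluorescence read after about 4 h, compared with medium-only control wells.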 The note with it: Homo sapiens, HCT-116, second HCT-116 column (c8); read-out: HCT-116 (uM) cell proliferation modulatory activity. It counts as cell-based.
A further test concerns the target recombinant human CK2 (Homo sapiens (Human), UniProt P68400). The test can be described thus: CK2 assay (cell-free, 33P-ATP filter plate). The settings on record: 500 nM compound, cell-free assay; read-out: CK2: % inh 500 nM. It counts as biochemical.
The target of the next test is recombinant human PIM1 (Homo sapiens (Human), UniProt P11309). As to the kind of experiment: PIM-1 kinase activity in cell-free in vitro assay. It counts as biochemical. The settings on record: cell-free assay; for inhibition at 0.5 µM: 500 nM compound, read-out: PIM-1: % inh 500 nM.
recombinant human PIM1, sequence (P11309 whole entry): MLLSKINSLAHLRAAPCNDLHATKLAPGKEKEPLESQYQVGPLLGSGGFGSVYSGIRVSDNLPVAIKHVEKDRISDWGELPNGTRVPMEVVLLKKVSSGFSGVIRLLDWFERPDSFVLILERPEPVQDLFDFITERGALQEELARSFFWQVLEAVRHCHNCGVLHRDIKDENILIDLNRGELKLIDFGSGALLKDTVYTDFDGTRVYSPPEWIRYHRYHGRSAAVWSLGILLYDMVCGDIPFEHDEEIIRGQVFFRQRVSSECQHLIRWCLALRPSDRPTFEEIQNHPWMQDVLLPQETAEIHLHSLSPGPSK
The test system of a further test is K-562. The test can be described thus: Cell proliferation modulatory activity, K-562. The settings on record: Homo sapiens, K562; K-562 cells. The test is classed as cell-based.
The next test deals with MV-4-11. The test can be described thus: Cell proliferation modulatory activity, MV-4-11. The note with it: Homo sapiens, MV4-11; MV-4-11 cells. The test is classed as cell-based.

IC50 and inhibition data for 34 compounds are collected here from patent US8168651B2, “Protein kinase modulators” (Cylene Pharmaceuticals, Inc., priority 2008, dated 2012).

recombinant human CK2, sequence (P68400 whole entry): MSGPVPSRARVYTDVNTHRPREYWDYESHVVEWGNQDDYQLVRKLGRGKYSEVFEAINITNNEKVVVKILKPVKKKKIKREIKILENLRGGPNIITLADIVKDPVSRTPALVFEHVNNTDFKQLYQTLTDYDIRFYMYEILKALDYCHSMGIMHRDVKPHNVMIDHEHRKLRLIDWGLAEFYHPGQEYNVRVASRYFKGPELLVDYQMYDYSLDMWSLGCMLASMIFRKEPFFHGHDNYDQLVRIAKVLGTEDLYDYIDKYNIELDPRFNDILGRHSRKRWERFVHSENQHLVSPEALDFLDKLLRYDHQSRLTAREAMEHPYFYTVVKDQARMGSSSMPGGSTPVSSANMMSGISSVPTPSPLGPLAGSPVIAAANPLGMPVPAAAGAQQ
recombinant human CK2, sequence (P67870 whole entry partner): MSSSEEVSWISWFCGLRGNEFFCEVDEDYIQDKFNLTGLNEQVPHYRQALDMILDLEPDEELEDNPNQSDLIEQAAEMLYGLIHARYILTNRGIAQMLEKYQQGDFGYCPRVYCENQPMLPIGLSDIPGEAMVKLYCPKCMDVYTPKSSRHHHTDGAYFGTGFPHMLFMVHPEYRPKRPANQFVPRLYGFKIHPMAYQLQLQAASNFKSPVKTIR

In the case of `N#Cc1ccc2c(c1)nc(N1CCC(c3cccnc3)C1)c1ccsc12` (stereo not drawn), the IC50 (in test [1]; with K-562; with MV-4-11) was greater than 10 µM each time. For the same compound, the figures for the inhibition at 0.5 µM at recombinant human CK2 and on recombinant human PIM1 were 0.642% and -11.2%, respectively.
For `N#Cc1ccc2c(c1)nc(NC1CCNCC1)c1ccsc12`, the IC50 was 3.15 µM in test [1], 0.416 µM on recombinant human PIM1, greater than 10 µM in the test with K-562 and 1.26 µM in the test with MV-4-11. The values for the inhibition at 0.5 µM at recombinant human CK2 and at recombinant human PIM1 were 27.1% and 70.1%, respectively.
In the case of `N#Cc1ccc2c(c1)nc(Nc1ccc(F)c(Cl)c1)c1cscc12`, the IC50 (in test [1]; in the test on K-562; in the test with MV-4-11) was greater than 10 µM each time. For the same compound, the inhibition at 0.5 µM at recombinant human CK2 is -8.36%; on recombinant human PIM1, -26.3%.
Regarding `CN(C)CCNc1nc2cc(-c3nnc[nH]3)ccc2c2sccc12`, the IC50 was greater than 10 µM in test [1], greater than 10 µM with K-562 and 6.04 µM in the test on MV-4-11. The inhibition at 0.5 µM at recombinant human CK2 was -76.9%; on recombinant human PIM1, -2.14%.
For the compound `CC(=O)N1CCN(c2nc3cc(C#N)ccc3c3sccc23)CC1`, the IC50 (in test [1]; in the test with K-562; with MV-4-11) was greater than 10 µM in each case. Moreover, the figures for the inhibition at 0.5 µM on recombinant human CK2 and at recombinant human PIM1 were 3.48% and 7.13%, respectively.
As for `CC(=O)NC1CCN(c2nc3cc(C#N)ccc3c3sccc23)C1` (stereo not drawn), the IC50 (in test [1]; in the test on K-562; with MV-4-11) was greater than 10 µM in each case. For the same compound, the inhibition at 0.5 µM at recombinant human CK2 was -8.88%; on recombinant human PIM1 it was 5.75%.
With `N#Cc1ccc2c(c1)nc(N1CCNCC1)c1ccsc12`, the IC50 in test [1] is 4.09 µM; in the test on K-562, greater than 10 µM; in the test with MV-4-11 it was 9.33 µM. Moreover, the inhibition at 0.5 µM on recombinant human CK2 was -27.3%; at recombinant human PIM1, 7.88%.
`Fc1ccc(Nc2nc3cc(-c4nnn[nH]4)ccc3c3cscc23)cc1`: the IC50 in test [1] is greater than 10 µM; with K-562, greater than 10 µM; in the test on MV-4-11, 5.47 µM. The inhibition at 0.5 µM at recombinant human CK2 is 37.6%; on recombinant human PIM1, 30.6%.
For `CNc1ncc2c(n1)c(N(C)c1ccccc1)nc1cc(C(=O)O)ccc12`, the IC50 in test [1] was greater than 10 µM; at recombinant human PIM1, 0.147 µM; in the test on K-562, greater than 10 µM; with MV-4-11, greater than 10 µM. In addition, the inhibition at 0.5 µM at recombinant human CK2 came to 94.5%; at recombinant human PIM1, 86.6%.
Turning to `CCCNc1nc2cc(-c3nnn[nH]3)ccc2c2sccc12`, the IC50 in test [1] is greater than 10 µM; at recombinant human PIM1 it was greater than 1.1 µM; in the test with K-562 it was greater than 10 µM; in the test on MV-4-11, greater than 10 µM. Also, the inhibition at 0.5 µM on recombinant human CK2 stood at 31.1%; on recombinant human PIM1, 59.1%.
In the case of `O=C(O)c1ccc2c(c1)nc(Nc1ccc3cn[nH]c3c1)c1ccncc12`, the IC50 in test [1] was greater than 10 µM; at recombinant human PIM1, 0.228 µM; in the test with K-562 it was greater than 10 µM; in the test on MV-4-11, greater than 10 µM. For the same compound, the values for the inhibition at 0.5 µM at recombinant human CK2 and on recombinant human PIM1 were 101% and 75.1%, respectively.
For `CN(CCN1CCCC1)c1nc2cc(C#N)ccc2c2sccc12`, the IC50 in test [1] was 1.41 µM; in the test with K-562, 3.04 µM; with MV-4-11, 1.84 µM. Also, the results for the inhibition at 0.5 µM on recombinant human CK2 and at recombinant human PIM1 were -20.3% and -3.97%, respectively.
As to `O=C(O)c1ccc2c(c1)nc(Nc1ccccc1)c1cccnc12`, the IC50 (in test [1]; with K-562; in the test on MV-4-11) was greater than 10 µM throughout. Besides, the inhibition at 0.5 µM was 25.5% on recombinant human CK2 and 34.7% on recombinant human PIM1.
In the case of `NC(=O)c1ccc(Nc2nc3cc(C(=O)O)ccc3c3cnccc23)cc1`, the IC50 in test [1] was greater than 10 µM; at recombinant human PIM1, 0.248 µM; in the test on K-562 it was greater than 10 µM; in the test with MV-4-11, greater than 10 µM. Moreover, the results for the inhibition at 0.5 µM at recombinant human CK2 and on recombinant human PIM1 were -5.09% and 78.2%, respectively.
As for `Cc1nccn1CCNc1nc2cc(-c3nnn[nH]3)ccc2c2sccc12`, the IC50 is greater than 10 µM in test [1], 0.119 µM at recombinant human PIM1, greater than 10 µM in the test on K-562 and greater than 10 µM with MV-4-11. Moreover, the inhibition at 0.5 µM at recombinant human CK2 was found to be 62.1%; on recombinant human PIM1, 81.5%.
On to `CN(C)CCCNc1nc2cc(C#N)ccc2c2sccc12`, for which the IC50 is 3.37 µM in test [1], greater than 10 µM in the test on K-562 and 7.81 µM in the test on MV-4-11. Besides, the inhibition at 0.5 µM on recombinant human CK2 is -30.5%; at recombinant human PIM1, 23.8%.
Turning to `c1ccc(CNc2nc3cc(-c4nnn[nH]4)ccc3c3sccc23)nc1`, the values for the IC50 (in test [1]; with K-562; in the test on MV-4-11) were greater than 10 µM, greater than 10 µM and 1 µM, respectively. Further, the inhibition at 0.5 µM at recombinant human CK2 stood at 27.9%; at recombinant human PIM1, 16.8%.
As to `N#Cc1ccc2c(c1)nc(NCCCN)c1ccsc12`, the IC50 in test [1] was 2.51 µM; on recombinant human PIM1, 0.129 µM; in the test with K-562, greater than 10 µM; in the test with MV-4-11 it was greater than 10 µM. Besides, the inhibition at 0.5 µM stood at 61.4% on recombinant human CK2 and 76.6% at recombinant human PIM1.
For the compound `CN(C)CCNc1nc2cc(-c3nnn[nH]3)ccc2c2sc(Br)cc12`, the IC50 is greater than 10 µM in test [1], 0.656 µM on recombinant human PIM1, greater than 10 µM with K-562 and greater than 10 µM in the test on MV-4-11. Also, the values for the inhibition at 0.5 µM at recombinant human CK2 and on recombinant human PIM1 were 24.8% and 60.7%, respectively.
Consider `CNc1ccc(C#N)cc1Nc1nc2cc(C(=O)O)ccc2c2cnccc12`, for which the figures for the IC50 (in test [1]; with K-562; with MV-4-11) were greater than 10 µM, greater than 10 µM and 6.15 µM, respectively. The inhibition at 0.5 µM at recombinant human CK2 was found to be 65%; on recombinant human PIM1 it was 19%.
As for `COc1cc(Nc2nc3cc(C(=O)O)ccc3c3cnccc23)cc(OC)c1`, the IC50 in test [1] was greater than 10 µM; on recombinant human PIM1, 0.152 µM; in the test on K-562, greater than 10 µM; in the test with MV-4-11 it was 6.94 µM. For the same compound, the inhibition at 0.5 µM on recombinant human CK2 came to 99.4%; on recombinant human PIM1, 72%.
Regarding `Cc1ccc(Nc2nc3cc(C(=O)O)ccc3c3cnccc23)cc1`, the IC50 in test [1] is greater than 10 µM; at recombinant human PIM1 it was 0.478 µM; in the test with K-562, 0.132 µM; in the test with MV-4-11, 9.31 µM. In addition, the results for the inhibition at 0.5 µM on recombinant human CK2 and on recombinant human PIM1 were 98% and 60.6%, respectively.
Take `N#Cc1ccc2c(c1)nc(NCc1ccc(C(N)=O)cc1)c1ccsc12`: the IC50 (in test [1]; with K-562; in the test with MV-4-11) was greater than 10 µM each time. For the same compound, the values for the inhibition at 0.5 µM at recombinant human CK2 and on recombinant human PIM1 were -4.69% and -23.8%, respectively.
`Clc1cccc(Nc2nc3cc(-c4nnn[nH]4)ccc3c3ccsc23)c1`: the IC50 in test [1] is greater than 10 µM; in the test on K-562, greater than 10 µM; with MV-4-11, 4.47 µM. Moreover, the inhibition at 0.5 µM came to 56.2% on recombinant human CK2 and 31.9% at recombinant human PIM1.
Turning to `CCc1cccc(Nc2nc3cc(C(=O)O)ccc3c3cnccc23)c1`, the IC50 was greater than 10 µM in test [1], 0.122 µM on recombinant human PIM1, greater than 10 µM in the test with K-562 and 3.64 µM with MV-4-11. Also, the inhibition at 0.5 µM was 101% at recombinant human CK2 and 85% at recombinant human PIM1.
As for `N#Cc1ccc2c(c1)nc(Nc1ccc(F)cc1)c1cscc12`, the IC50 (in test [1]; with K-562; in the test on MV-4-11) was greater than 10 µM in each case. For the same compound, the inhibition at 0.5 µM on recombinant human CK2 was 9.21%; on recombinant human PIM1 it was -6.77%.
Consider `COCCNC(=O)c1ccc2c(c1)nc(NCCN(C)C)c1ccsc12`, for which the IC50 (in test [1]; in the test with K-562; in the test on MV-4-11) was greater than 10 µM in each case. The inhibition at 0.5 µM at recombinant human CK2 is -12.9%; on recombinant human PIM1, -3.76%.
Regarding `N#Cc1ccc(Nc2nc3cc(C(=O)O)ccc3c3cnccc23)cc1`, the IC50 is greater than 10 µM in test [1], 0.31 µM at recombinant human PIM1, greater than 10 µM in the test with K-562 and greater than 10 µM in the test with MV-4-11. Further, the inhibition at 0.5 µM at recombinant human CK2 turned out to be 95.6%; at recombinant human PIM1, 67.3%.
For `N#Cc1cc(F)cc(Nc2nc3cc(C(=O)O)ccc3c3cnccc23)c1`, the IC50 in test [1] was greater than 10 µM; on recombinant human PIM1, 0.096 µM; in the test with K-562, greater than 10 µM; in the test with MV-4-11, greater than 10 µM. For the same compound, the values for the inhibition at 0.5 µM on recombinant human CK2 and on recombinant human PIM1 were 101% and 94.6%, respectively.
Take `c1cc2c(NC3CCNCC3)nc3cc(-c4nnn[nH]4)ccc3c2s1`: the IC50 was greater than 10 µM in test [1], 0.078 µM at recombinant human PIM1, greater than 10 µM in the test on K-562 and greater than 10 µM in the test on MV-4-11. The figures for the inhibition at 0.5 µM at recombinant human CK2 and at recombinant human PIM1 were -21.2% and 85.7%, respectively.
As for `O=C(O)c1ccc2c(c1)nc(NCCc1ccccc1)c1cnccc12`, the IC50 (in test [1]; with K-562; in the test with MV-4-11) was greater than 10 µM in each case. Also, the inhibition at 0.5 µM on recombinant human CK2 is -0.531%; on recombinant human PIM1, 42.2%.
With `CN1CCN(c2nc3cc(C#N)ccc3c3sccc23)CC1`, the IC50 is 8.77 µM in test [1], greater than 10 µM in the test with K-562 and 4.79 µM with MV-4-11. Moreover, the inhibition at 0.5 µM at recombinant human CK2 worked out at 24.3%; at recombinant human PIM1, 15.8%.
With `CN(C)CCCN(C)c1nc2cc(-c3nnn[nH]3)ccc2c2sccc12`, the IC50 was greater than 10 µM in test [1], 0.221 µM on recombinant human PIM1, greater than 10 µM with K-562 and greater than 10 µM with MV-4-11. Moreover, the figures for the inhibition at 0.5 µM on recombinant human CK2 and at recombinant human PIM1 were 60.1% and 70.5%, respectively.
On to `O=C(O)c1ccc2c(c1)nc(Nc1cccc(CO)c1)c1ccncc12`, for which the IC50 in test [1] was greater than 10 µM; at recombinant human PIM1 it was 0.321 µM; in the test on K-562, greater than 10 µM; in the test with MV-4-11, greater than 10 µM. Besides, the figures for the inhibition at 0.5 µM at recombinant human CK2 and on recombinant human PIM1 were 97.5% and 64.7%, respectively.
